Molecule `Clc1cc(Cl)c2c(c1)oc1c(Cl)cc(Cl)cc12` registered a logP of 6.37. In the case of `Clc1cc(Cl)c2c(oc3c(Cl)cccc32)c1Cl` it was 6.31.

On to `Clc1cc2c(oc3c(Cl)c(Cl)c(Cl)c(Cl)c32)c(Cl)c1Cl`, for which the logP was found to be 7.92. In turn, `Clc1cc(Cl)c2oc3c(Cl)c(Cl)c(Cl)cc3c2c1` returned a logP of 6.59. Molecule `Clc1cc(Cl)c2c(oc3ccc(Cl)c(Cl)c32)c1Cl` registered a logP of 6.51. For `Clc1cc(Cl)c2oc3c(Cl)c(Cl)ccc3c2c1` the value was 6.25; for `Clc1cc2oc3cc(Cl)c(Cl)cc3c2cc1Cl`, 6.53; for `Clc1ccc2oc3c(Cl)c(Cl)c(Cl)c(Cl)c3c2c1`, 6.79. For `Clc1cc(Cl)c2c(c1)oc1cc(Cl)cc(Cl)c12` the value was 6.34; for `Clc1cc2oc3ccc(Cl)c(Cl)c3c2cc1Cl`, 6.23; for `Clc1ccc2c(c1)oc1c(Cl)c(Cl)cc(Cl)c12`, 6.23. In the case of `Clc1c(Cl)c(Cl)c2c(oc3ccccc32)c1Cl` it was 6.17; in that of `Clc1cc2oc3c(Cl)c(Cl)c(Cl)cc3c2cc1Cl`, 6.92.

In turn, `Clc1cc(Cl)c2oc3cc(Cl)c(Cl)cc3c2c1` displayed a logP of 6.73. In the case of `Clc1cc(Cl)c2oc3c(Cl)c(Cl)cc(Cl)c3c2c1` it was 6.24; in that of `Clc1cc2c(oc3c(Cl)cccc32)c(Cl)c1Cl`, 6.11; in that of `Clc1cc(Cl)c2oc3c(Cl)ccc(Cl)c3c2c1Cl`, 6.59. In the case of `Clc1cc2oc3cc(Cl)c(Cl)c(Cl)c3c2cc1Cl` it was 6.79; in that of `Clc1cc2oc3c(Cl)c(Cl)ccc3c2cc1Cl`, 6.31.

For the origin of these results see the OPERA property sets (Mansouri et al. 2018).
